The values below come from patent US9598423B2 (BRISTOL-MYERS SQUIBB COMPANY, priority 2013, dated 2017).

One experiment deals with CK1δ (Homo sapiens (Human), UniProt P48730). Description: CK1δ kinase assay (Caliper LABCHIP electrophoretic separation of fluoresceinated peptide substrate and product). The format is biochemical. To be noted: 200 pM CK1δ, 50 μM ATP, 1.5 μM peptide substrate, 22 hours at room temperature; read-out: CK1δ (IC50). The procedure, abridged: (§1)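 Eleven-concentration compound series in kinase reactions run for 22 hours at room temperature. Terminated with EDTA, with product conversion read by electrophoretic separation. Non-linear regression gave IC50.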

A further experiment addresses CK1ε (Homo sapiens (Human), UniProt P49674). Description: CK1ε kinase assay (Caliper LABCHIP electrophoretic separation of fluoresceinated peptide substrate and product). The format is biochemical. Conditions: 200 pM CK1ε, 50 μM ATP, 1.5 μM peptide substrate, 22 hours at room temperature; read-out: CK1ε (IC50). The procedure, abridged: as §1

Sequence of CK1ε (P49674 whole entry): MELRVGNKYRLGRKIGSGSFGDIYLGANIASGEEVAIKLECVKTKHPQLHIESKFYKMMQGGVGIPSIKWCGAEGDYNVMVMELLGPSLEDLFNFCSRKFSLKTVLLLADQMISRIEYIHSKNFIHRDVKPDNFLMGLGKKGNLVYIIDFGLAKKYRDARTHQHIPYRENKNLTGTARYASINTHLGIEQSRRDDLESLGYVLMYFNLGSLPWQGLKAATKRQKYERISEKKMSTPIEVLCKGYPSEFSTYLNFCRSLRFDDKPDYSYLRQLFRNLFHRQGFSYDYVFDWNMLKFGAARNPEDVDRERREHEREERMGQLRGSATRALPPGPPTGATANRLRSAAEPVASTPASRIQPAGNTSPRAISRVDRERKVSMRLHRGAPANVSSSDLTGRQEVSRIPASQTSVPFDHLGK
Sequence of CK1δ (P48730 whole entry): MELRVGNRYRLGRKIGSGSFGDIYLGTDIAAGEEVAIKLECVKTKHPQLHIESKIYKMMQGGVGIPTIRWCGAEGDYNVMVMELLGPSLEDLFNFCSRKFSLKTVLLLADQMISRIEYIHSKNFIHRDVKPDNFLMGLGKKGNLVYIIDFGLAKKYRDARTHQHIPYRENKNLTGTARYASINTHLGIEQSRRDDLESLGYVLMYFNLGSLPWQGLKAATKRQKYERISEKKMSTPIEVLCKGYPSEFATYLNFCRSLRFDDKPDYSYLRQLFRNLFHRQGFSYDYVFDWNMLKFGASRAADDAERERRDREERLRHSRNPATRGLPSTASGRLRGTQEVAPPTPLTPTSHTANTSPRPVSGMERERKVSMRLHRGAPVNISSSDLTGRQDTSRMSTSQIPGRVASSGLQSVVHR

As usually defined, the IC50 is the concentration that gives 50% inhibition. Take `CN(C)c1cccc(-c2nn3c(c2C(N)=O)CN(C(=O)Nc2ccc(C#N)cc2)CC3)c1` [Compound 279, N^5-(4-Cyanophenyl)-2-(3-(dimethylamino)phenyl)-6,7-dihydropyrazolo[1,5-a] pyrazine-3,5(4H)-dicarboxamide]: the IC50 at CK1δ and on CK1ε was 0.01 to 10 nM each time.
As for `N#Cc1ccc(NC(=O)N2CCn3nc(-c4ccc(F)c(Cl)c4)c(C(N)=O)c3C2)cc1Cl` [Compound 203, N^5-(3-Chloro-4-cyanophenyl)-2-(3-chloro-4-fluorophenyl)-6,7-dihydropyrazolo[1,5-a]pyrazine-3,5(4H)-dicarboxamide], the IC50 at CK1δ and at CK1ε was 0.01 to 10 nM each time.
Consider `CC(C)(O)[C@H]1CN(C(=O)Nc2ccc(C#N)cc2)Cc2c(C(N)=O)c(-c3ccc(Cl)c(Cl)c3)nn21` (single isomer, unassigned) [Compound A35, N^5-(4-Cyanophenyl)-2-(3,4-dichlorophenyl)-7-(2-hydroxypropan-2-yl)-6,7-dihydropyrazolo[1,5-a]pyrazine-3,5(4H)-dicarboxamide], for which the IC50 on CK1δ and at CK1ε was 0.01 to 10 nM in each case.
For the molecule `NC(=O)c1c(-c2ccc(F)c(Cl)c2)nn2c1CN(C(=O)Nc1ccc(OC(F)(F)F)cc1)CC2` [Compound 181, 2-(3-Chloro-4-fluorophenyl)-N^5-(4-(trifluoromethoxy)phenyl)-6,7-dihydropyrazolo[1,5-a] pyrazine-3,5(4H)-dicarboxamide], the IC50 at CK1δ and on CK1ε was 0.01 to 10 nM throughout.
For `COc1ccc(Cl)cc1-c1nn2c(c1C(N)=O)CN(C(=O)Nc1ccc(C#N)cc1)CC2` [Compound 278, 2-(5-Chloro-2-methoxyphenyl)-N^5-(4-cyanophenyl)-6,7-dihydropyrazolo[1,5-a] pyrazine-3,5(4H)-dicarboxamide], the IC50 at CK1δ and at CK1ε was 10 to 100 nM in each case.
`CSc1cccc(-c2nn3c(c2C(N)=O)CN(C(=O)Nc2ccc(C#N)cc2)CC3)c1` [Compound 281, N^5-(4-Cyanophenyl)-2-(3-(methylthio)phenyl)-6,7-dihydropyrazolo[1,5-a] pyrazine-3,5(4H)-dicarboxamide]: the IC50 at CK1δ and on CK1ε was 0.01 to 10 nM throughout.
For the molecule `N#Cc1ccc(NC(=O)N2CCn3nc(-c4cc(F)cc(Cl)c4)c(C(N)=O)c3C2)cc1C(F)(F)F` [Compound 218, 2-(3-Chloro-5-fluorophenyl)-N^5-(4-cyano-3-(trifluoromethyl)phenyl)-6,7-dihydropyrazolo[1,5-a] pyrazine-3,5(4H)-dicarboxamide], the figures for the IC50 at CK1δ and on CK1ε were 10 to 100 nM and 0.01 to 10 nM, respectively.
`NC(=O)c1c(-c2ccc(F)c(Cl)c2)nn2c1CN(C(=O)Nc1ccc(F)c(C(F)(F)F)c1)CC2` [Compound 190, 2-(3-Chloro-4-fluorophenyl)-N^5-(4-fluoro-3-(trifluoromethyl)phenyl)-6,7-dihydropyrazolo[1,5-a] pyrazine-3,5(4H)-dicarboxamide]: the IC50 at CK1δ and on CK1ε was 0.01 to 10 nM throughout.
Turning to `NC(=O)c1c(-c2ccc(F)c(Cl)c2)nn2c1CN(C(=O)Nc1ccc(C(F)(F)F)c(Cl)c1)CC2` [Compound 176, N^5-(3-Chloro-4-(trifluoromethyl)phenyl)-2-(3-chloro-4-fluorophenyl)-6,7-dihydropyrazolo[1,5-a] pyrazine-3,5(4H)-dicarboxamide], the IC50 on CK1δ and on CK1ε was 0.01 to 10 nM throughout.
Take `N#Cc1ccc(NC(=O)N2CCn3nc(-c4cnc(Cl)c(Cl)c4)c(C(N)=O)c3C2)cc1` [Compound 297, N^5-(4-Cyanophenyl)-2-(5,6-dichloropyridin-3-yl)-6,7-dihydropyrazolo[1,5-a]pyrazine-3,5(4H)-dicarboxamide]: the IC50 on CK1δ and at CK1ε was 0.01 to 10 nM each time.
Consider `N#Cc1ccc(NC(=O)N2CCn3nc(-c4cc(F)cc(Cl)c4)c(C(N)=O)c3C2)cc1F` [Compound 215, 2-(3-Chloro-5-fluorophenyl)-N^5-(4-cyano-3-fluorophenyl)-6,7-dihydropyrazolo[1,5-a]pyrazine-3,5(4H)-dicarboxamide], for which the IC50 on CK1δ and on CK1ε was 0.01 to 10 nM throughout.
